Assay results: the supplement of paper PMC13380429

How the values were obtained:
Conditions in all cases: 72 h
Calu-3 [1] = assay: drug sensitivity score (DSS) for viability; higher = more toxic; extreme values may be limits of the assay
Caco-2 [2] = assay: as above
U2OS [3] = assay: as above
Vero E6 [4] = assay: as above
HepG2 [5] = assay: as above
Calu-3 [6] = assay: cell viability relative to DMSO; higher = less toxic
Caco-2 [7] = assay: as above
U2OS [8] = assay: as above
Vero E6 [9] = assay: as above
HepG2 [10] = assay: as above
Calu-3 [11] = assay: relative viability EC50 (midpoint between 100% and the lowest measured viability); higher = less toxic
Caco-2 [12] = assay: as above
U2OS [13] = assay: as above
Vero E6 [14] = assay: as above
HepG2 [15] = assay: as above

| Compound | drug sensitivity score (Calu-3 [1]) | drug sensitivity score (Caco-2 [2]) | drug sensitivity score (U2OS [3]) | drug sensitivity score (Vero E6 [4]) | drug sensitivity score (HepG2 [5]) | cell viability (Calu-3 [6]; 1 nM) [%] | cell viability (Calu-3 [6]; 10 nM) [%] | cell viability (Calu-3 [6]; 100 nM) [%] | cell viability (Calu-3 [6]; 1000 nM) [%] | cell viability (Calu-3 [6]; 10000 nM) [%] | cell viability (Caco-2 [7]; 1 nM) [%] | cell viability (Caco-2 [7]; 10 nM) [%] | cell viability (Caco-2 [7]; 100 nM) [%] | cell viability (Caco-2 [7]; 1000 nM) [%] | cell viability (Caco-2 [7]; 10000 nM) [%] | cell viability (U2OS [8]; 1 nM) [%] | cell viability (U2OS [8]; 10 nM) [%] | cell viability (U2OS [8]; 100 nM) [%] | cell viability (U2OS [8]; 1000 nM) [%] | cell viability (U2OS [8]; 10000 nM) [%] | cell viability (Vero E6 [9]; 1 nM) [%] | cell viability (Vero E6 [9]; 10 nM) [%] | cell viability (Vero E6 [9]; 100 nM) [%] | cell viability (Vero E6 [9]; 1000 nM) [%] | cell viability (Vero E6 [9]; 10000 nM) [%] | cell viability (HepG2 [10]; 1 nM) [%] | cell viability (HepG2 [10]; 10 nM) [%] | cell viability (HepG2 [10]; 100 nM) [%] | cell viability (HepG2 [10]; 1000 nM) [%] | cell viability (HepG2 [10]; 10000 nM) [%] | relative viability EC50 (Calu-3 [11]) [µM] | relative viability EC50 (Caco-2 [12]) [µM] | relative viability EC50 (U2OS [13]) [µM] | relative viability EC50 (Vero E6 [14]) [µM] | relative viability EC50 (HepG2 [15]) [µM] |
| --- | --- | --- | --- | --- | --- | --- | --- | --- | --- | --- | --- | --- | --- | --- | --- | --- | --- | --- | --- | --- | --- | --- | --- | --- | --- | --- | --- | --- | --- | --- | --- | --- | --- | --- | --- |
| COc1ccc(O)cc1 [mequinol] | 0 | 0 | 0 | 0 | 1.7 | 104 | 100 | 105 | 94.9 | 92.8 | 97.8 | 98.5 | 105 | 104 | 97.9 | 100 | 109 | 96.8 | 98.7 | 101 | 96.8 | 94.1 | 105 | 103 | 95.3 | 103 | 90 | 85.6 | 92.9 | 79.7 | > 10 | > 10 | > 10 | > 10 | > 10 |
| CNC(=S)C1(c2ccccn2)CCCS1 (stereo not given) [picartamide] | 0 | 0 | 0 | 0 | 0 | 96.9 | 93 | 102 | 106 | 106 | 94.1 | 96.8 | 92.9 | 95.1 | 99.4 | 99.5 | 104 | 96.2 | 99.4 | 106 | 103 | 96.5 | 106 | 101 | 93.7 | 98.3 | 93.6 | 103 | 99.6 | 97.8 | > 10 | > 10 | > 10 | > 10 | > 10 |
| N#Cc1ccccc1-c1cc(-c2ccccn2)cn(-c2ccccc2)c1=O [Perampanel] | 0 | 0 | 0 | 0 | 0 | 90.5 | 97.5 | 96.5 | 103 | 95.6 | 90.5 | 106 | 97.5 | 93.6 | 104 | 94 | 94 | 99.6 | 96.2 | 99.7 | 92.1 | 101 | 95.4 | 96.9 | 92.4 | 98.7 | 108 | 104 | 105 | 119 | > 10 | > 10 | > 10 | > 10 | > 10 |
| N[C@@H](C(=O)N[C@@H]1C(=O)N2C(C(=O)O)=C(Cl)CS[C@H]12)c1ccccc1 [cefaclor] | 0 | 0 | 0 | 0 | 0 | 97.1 | 99 | 102 | 102 | 98.5 | 94.7 | 98 | 88.9 | 97.1 | 92.6 | 101 | 103 | 99.3 | 98 | 98.2 | 97 | 98.3 | 101 | 95.8 | 94.7 | 96.4 | 102 | 100 | 104 | 98.5 | > 10 | > 10 | > 10 | > 10 | > 10 |
| CCCCN1CCCC1CNC(=O)c1cc(C#N)c2ccccc2c1OC (stereo not given) [nafadotride] | 0 | 0 | 0 | 0 | 0 | 102 | 106 | 87.2 | 105 | 97.1 | 98.8 | 97.6 | 97.4 | 104 | 102 | 98.3 | 101 | 104 | 101 | 92.2 | 102 | 96.8 | 105 | 100 | 92.5 | 104 | 103 | 105 | 97.5 | 96.7 | > 10 | > 10 | > 10 | > 10 | > 10 |
| CC1(C)CC(=O)c2c(C(F)(F)F)nn(-c3ccc(C(N)=O)c(N[C@H]4CC[C@H](OC(=O)CN)CC4)c3)c2C1 [SNX-5422] | 13.1 | 13.5 | 21.9 | 10.6 | 28.8 | 85.3 | 93.9 | 80.9 | 40.5 | 38.7 | 90.2 | 95.8 | 85.4 | 37.3 | 35.2 | 92 | 105 | 68.9 | 3.4 | 3.4 | 95.6 | 94 | 97.5 | 47.3 | 25.8 | 101 | 92.9 | 15.8 | 0.9 | 1.9 | 0.161 | 0.189 | 0.135 | 0.612 | 0.0395 |
| Cc1cc(N2CCN([C@@H]3CN[C@H](C(=O)N4CCSC4)C3)CC2)n(-c2ccccc2)n1 [teneligliptin] | 0 | 0 | 0 | 0 | 0 | 104 | 108 | 92.6 | 91.9 | 102 | 104 | 97.9 | 94.3 | 101 | 90 | 95.8 | 101 | 99.5 | 100 | 98.3 | 104 | 98.9 | 101 | 99.2 | 98.2 | 101 | 106 | 98.4 | 97 | 94.7 | > 10 | > 10 | > 10 | > 10 | > 10 |
| CCCC(=O)N1CCCN(c2nc(N)c3cc(OC)c(OC)cc3n2)CC1 [bunazosin] | 0 | 0 | 0 | 0 | 0 | 102 | 101 | 105 | 92 | 115 | 108 | 96.4 | 101 | 101 | 99.7 | 95.4 | 103 | 101 | 96.7 | 98.2 | 104 | 105 | 102 | 99.3 | 97.3 | 94.7 | 99.3 | 103 | 94.3 | 99.3 | > 10 | > 10 | > 10 | > 10 | > 10 |
| O=S(=O)(O)c1ccc2[nH]c(-c3ccccc3)nc2c1 [phenylbenzimidazole-sulfonic-acid] | 0 | 0 | 0 | 0 | 0 | 111 | 112 | 106 | 105 | 89.2 | 98.9 | 95.8 | 90.3 | 93 | 96.8 | 97.9 | 96.7 | 103 | 99.3 | 99.4 | 96.3 | 89.7 | 97.3 | 96.7 | 107 | 85.6 | 93 | 93.2 | 94.3 | 99.2 | > 10 | > 10 | > 10 | > 10 | > 10 |
| N=C(N)SCCc1ccc(OCc2ccc([N+](=O)[O-])cc2)cc1 [KB-R7943] | 0 | 0 | 0 | 0 | 1.7 | 104 | 110 | 93.5 | 99.6 | 98.4 | 88.7 | 103 | 99.2 | 97.2 | 94.5 | 96.5 | 105 | 98.3 | 105 | 102 | 99.7 | 101 | 99.2 | 97.4 | 90.4 | 96.2 | 108 | 108 | 90.3 | 78.8 | > 10 | > 10 | > 10 | > 10 | > 10 |
| CNCCCC1(c2ccccc2)OC(C)(C)c2ccccc21 (stereo not given) [talopram] | 0 | 0 | 0 | 0 | 0 | 99.4 | 102 | 102 | 96.3 | 103 | 91.4 | 104 | 103 | 101 | 99.2 | 101 | 98.7 | 100 | 99.4 | 99 | 93.7 | 96.8 | 90.1 | 99 | 104 | 101 | 102 | 89.8 | 110 | 106 | > 10 | > 10 | > 10 | > 10 | > 10 |
| NC[C@H]1O[C@H](O[C@H]2[C@H](O)[C@@H](O[C@H]3O[C@H](CO)[C@@H](O)[C@H](N)[C@H]3O)[C@H](N)C[C@@H]2N)[C@H](N)[C@@H](O)[C@@H]1O [bekanamycin] | 0 | 0 | 0 | 0 | 0 | 111 | 93 | 97.8 | 111 | 97.3 | 103 | 101 | 95.9 | 110 | 100 | 95.7 | 103 | 97.5 | 101 | 97.7 | 98.1 | 102 | 99.2 | 97.4 | 108 | 94.7 | 97.8 | 103 | 94.4 | 99.1 | > 10 | > 10 | > 10 | > 10 | > 10 |
